Measurements as given in PubChem BioAssay (NCI).
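Cultured in 96-well plates, cells were exposed to test compound for 48 hours across five concentrations. Here, GI50 denotes the concentration required for 50% inhibition of growth. TGI marks complete inhibition of growth.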

How the values were obtained:
Experiment in all cases: growth of human tumour cells (NCI), 48 h
SNB-19 CNS = tested on: SNB-19 CNS
PC-3 prostate = tested on: PC-3 prostate
SK-MEL-2 melanoma = tested on: SK-MEL-2 melanoma
NCI-H23 lung = tested on: NCI-H23 lung
MOLT-4 leukemia = tested on: MOLT-4 leukemia
NCI-H226 lung = tested on: NCI-H226 lung
HOP-92 NSCLC = tested on: HOP-92 NSCLC
MDA-MB-435 = tested on: MDA-MB-435
SK-MEL-5 melanoma = tested on: SK-MEL-5 melanoma
K-562 leukemia = tested on: K-562 leukemia
HOP-62 NSCLC = tested on: HOP-62 NSCLC
A498 renal = tested on: A498 renal
KM12 colon = tested on: KM12 colon
MALME-3M melanoma = tested on: MALME-3M melanoma
SF-295 CNS = tested on: SF-295 CNS
HT29 colon = tested on: HT29 colon
MDA-MB-231 breast = tested on: MDA-MB-231 breast
COLO 205 colon = tested on: COLO 205 colon
RXF 393 renal = tested on: RXF 393 renal
EKVX NSCLC = tested on: EKVX NSCLC
BT-549 breast = tested on: BT-549 breast
UO-31 renal = tested on: UO-31 renal
OVCAR-4 ovarian = tested on: OVCAR-4 ovarian
CAKI-1 renal = tested on: CAKI-1 renal
NCI-H522 lung = tested on: NCI-H522 lung
SF-268 CNS = tested on: SF-268 CNS
UACC-62 melanoma = tested on: UACC-62 melanoma
SN12C renal = tested on: SN12C renal
SF-539 CNS = tested on: SF-539 CNS

`CC12CCC3C(CC=C4CC(O)CCC43C)C1C/C(=C\N1CCCC1)C2=O` (configuration not stated) gave a GI50 (SNB-19 CNS) greater than 100 µM, a TGI (SNB-19 CNS) greater than 100 µM and a GI50 (PC-3 prostate) of 55 µM. The TGI (PC-3 prostate) was greater than 100 µM, the GI50 (SK-MEL-2 melanoma) was greater than 100 µM and the TGI (SK-MEL-2 melanoma) was greater than 100 µM. It also gave a GI50 (NCI-H23 lung) greater than 100 µM, a TGI (NCI-H23 lung) greater than 100 µM and a GI50 (MOLT-4 leukemia) greater than 100 µM. It also gave a TGI (MOLT-4 leukemia) greater than 100 µM, a GI50 (NCI-H226 lung) greater than 100 µM and a TGI (NCI-H226 lung) greater than 100 µM. It also gave a GI50 (HOP-92 NSCLC) of 4.52 µM, a TGI (HOP-92 NSCLC) of 83.7 µM and a GI50 (MDA-MB-435) greater than 100 µM. The TGI (MDA-MB-435) was greater than 100 µM, the GI50 (SK-MEL-5 melanoma) was 64.5 µM and the TGI (SK-MEL-5 melanoma) was greater than 100 µM. The GI50 (K-562 leukemia) was 55.8 µM, the TGI (K-562 leukemia) was greater than 100 µM and the GI50 (HOP-62 NSCLC) was greater than 100 µM. For the same compound, the TGI (HOP-62 NSCLC) was greater than 100 µM, the GI50 (A498 renal) was greater than 100 µM and the TGI (A498 renal) was greater than 100 µM. It also gave a GI50 (KM12 colon) of 73.3 µM, a TGI (KM12 colon) greater than 100 µM and a GI50 (MALME-3M melanoma) of 71.5 µM. It also gave a TGI (MALME-3M melanoma) greater than 100 µM, a GI50 (SF-295 CNS) of 57.2 µM and a TGI (SF-295 CNS) greater than 100 µM. For the same compound, the GI50 (HT29 colon) was greater than 100 µM, the TGI (HT29 colon) was greater than 100 µM and the GI50 (MDA-MB-231 breast) was 40.8 µM. The TGI (MDA-MB-231 breast) was greater than 100 µM, the GI50 (COLO 205 colon) was greater than 100 µM and the TGI (COLO 205 colon) was greater than 100 µM. For the same compound, the GI50 (RXF 393 renal) was 41.8 µM, the TGI (RXF 393 renal) was greater than 100 µM and the GI50 (EKVX NSCLC) was 46.6 µM. For the same compound, the TGI (EKVX NSCLC) was greater than 100 µM, the GI50 (BT-549 breast) was 41 µM and the TGI (BT-549 breast) was greater than 100 µM. It also gave a GI50 (UO-31 renal) of 67.2 µM, a TGI (UO-31 renal) greater than 100 µM and a GI50 (OVCAR-4 ovarian) of 61 µM. The TGI (OVCAR-4 ovarian) was greater than 100 µM, the GI50 (CAKI-1 renal) was 61.2 µM and the TGI (CAKI-1 renal) was greater than 100 µM. It also gave a GI50 (NCI-H522 lung) greater than 100 µM, a TGI (NCI-H522 lung) greater than 100 µM and a GI50 (SF-268 CNS) greater than 100 µM. It also gave a TGI (SF-268 CNS) greater than 100 µM, a GI50 (UACC-62 melanoma) of 41.2 µM and a TGI (UACC-62 melanoma) greater than 100 µM. The GI50 (SN12C renal) was 85 µM, the TGI (SN12C renal) was greater than 100 µM and the GI50 (SF-539 CNS) was greater than 100 µM.
